Patent publication US20160184274A1, “Methods for inhibiting mesenchymal phenotype after epithelial-to-mesenchymal transition” (Fibrostatin, S.L., priority 2014, published 2016)
Entries after “also recorded” stand apart in the source; their conditions may differ.

What was measured:
[1] = test system: A549 cells expressing GPBP-EYFP; assay: GPBP-induced phenotype transition, Western blot of markers; type: cell-based, Human; conditions: T12 10 μM, 24 h; FIG. 4
Procedure: FIG. 4. T12 inhibits GPBP-induced phenotype transition in A549 cultures. A549 cells expressing either GPBP-EYFP fusion protein or EYFP were cultured during 24 h in the presence (+) or absence (−) of T12 (10 μM.) Then cells were lysed and similar amounts of lysates were analyzed by Western blot with antibodies against the indicated proteins. Loading equivalence was confirmed by tubulin expression analysis in each of the individual experiments (not shown). To generate cells expressing GPBP fused to Enhanced Yellow Fluorescent Protein (GPBP-EYFP) or EYFP, A549 cells were transfected either with pEYFP-N1-GPBP construct or with pEYFP-N1 vector (Clontech), expressing GPBP-EYFP and EYFP, respectively. Transfected cells were selected with 400 mg/L of geniticin and clones were isolated with a High SPEED CELL SORTER MOFLO® (Beckman-Coulter) and further cultured. Recombinant protein expression was assessed by immunofluorescence microscopy and by Western blot with anti-GPBP N27 mouse monoclonal antibodies. For Western blot analysis, cells were lysed in TBS supplemented with 1% Triton X-100, 0.1% SDS, 1 mM PMSF, 10 μg/mL leupeptine and 20 mM NaF during 30 min at 4° C. Lysates were centrifuged (16,000×g, 5 min, 4° C.) and supernatants were collected and protein concentration determined (Bio-Rad Protein Assay). Samples were subjected to reducing SDS-PAGE and electro-transference onto PVDF membrane. […]

A7C11 = assay: Collagen IV expression in A7C11; type: cell-based, murine; conditions: data not shown
RAW264.7 = assay: Collagen IV expression in RAW264.7; type: cell-based; conditions: data not shown
[2] = test system: 4T1 mouse breast cancer cells; assay: Murine breast cancer 4T1 model; type: in vivo, Balb/c mice
Procedure: FIG. 10. […] Control, n=43; T12, n=18. FIG. 11. T12 targets circulating 4T1 cancer cells. A, Balb/c female mice were inoculated with 4T1 mouse breast cancer cells at mammary fat pads. At day 20 after cell inoculation mice were subjected to PET analysis for metastases detection. White arrows denote metastatic foci at the spinal cord. B, Balb/c female from A were either left untreated (Control), or were treated with T12 in drinking water from day 20. At day 35 blood was seeded in the presence of 6-thioguanine and circulating 4T1 cells selected and further cultured. Shown are phase contrast images of the resulting cultures acquired with an inverted microscope. […] C, circulating 4T1 cells recovered as in B and 4T1 cells were cultured in standard 2D cultures and subjected to RNA extraction, and RNA samples were analyzed by RT-qPCR. Shown are the relative quantities (RQ) of the indicated mRNAs of circulating 4T1 cells using levels from 4T1 cells as reference. D, the cultures in C were treated with the indicated concentrations of T12 for 24 h. Dead cells in culture media were quantified by measuring cell size using an automated cell counter (Moxi Z, Orflo). The number of dead cells in the culture media of the respective untreated cells (−) was used as reference. E, circulating 4T1 cells recovered as in B or 4T1 cells were cultured in ultra-low binding plates and treated with the indicated concentrations of T12 for 9 days, cells were lysed and analyzed by Western blot using antibodies specific for activated caspase 3. The levels of GAPDH were determined for loading control purposes. For other assays, 10^4 4 T1 cells were suspended in 10 μl PBS and subcutaneously injected into the 4th mammary fat pad of 4-week-old Balb/c female mice, and either left untreated or treated since the inoculation day with T12 (12 mg/kg/day in drinking water). Primary tumors formed and dimensions were periodically measured with a caliper.

[3] = test system: patient-derived cisplatin-resistant mesenchymal NSCLC cells; conditions: WO/2014/006020; cited from earlier work

COc1ccc(-c2ccc(-c3cccc(C)c3)c(C)c2)c(CCC(=O)O)c1 [T12, 3-[4″-methoxy-3,2′-dimethyl-(1,1′;4′,1″)terphenyl-2″-yl] propionic acid]
effect on GPBP-EYFP-induced changes of vimentin, phospho p70-S6 kinase and E-cadherin [1]: counteracted all these regulatory effects
collagen IV expression (A7C11): significantly reduced collagen IV expression
collagen IV expression (RAW264.7): significantly reduced collagen IV expression
tumor volume (anti-tumor activity) ([2]; T12 12 mg/kg/day in drinking water from inoculation, FIG. 10B, 12 mg/kg/day): displayed anti-tumor activity; also recorded: differences are statistically significant
superficial metastasis per lung ([2]; T12 12 mg/kg/day in drinking water, day 25, FIG. 10C, 12 mg/kg/day): inhibited metastasis formation; also recorded: Differences are statistically significant
recovery of circulating 4T1 tumor cells from blood ([2]; T12 in drinking water from day 20, blood seeded at day 35 with 6-thioguanine, FIG. 11B): impeded the isolation of circulating 4T1 tumor cells; also recorded: could not be recovered
toxicity [3]: high-toxicity
